Legend:
Type in all cases: cell-based
[1] = molecular target: T1, succinate receptor 1 (SUCNR1) (Homo sapiens, UniProt Q9BXA5); assay: cAMP inhibition assay; also DMR, IP1, Ca2+, arrestin-3 and miniG BRET
T1 sequence (Q9BXA5 1-334): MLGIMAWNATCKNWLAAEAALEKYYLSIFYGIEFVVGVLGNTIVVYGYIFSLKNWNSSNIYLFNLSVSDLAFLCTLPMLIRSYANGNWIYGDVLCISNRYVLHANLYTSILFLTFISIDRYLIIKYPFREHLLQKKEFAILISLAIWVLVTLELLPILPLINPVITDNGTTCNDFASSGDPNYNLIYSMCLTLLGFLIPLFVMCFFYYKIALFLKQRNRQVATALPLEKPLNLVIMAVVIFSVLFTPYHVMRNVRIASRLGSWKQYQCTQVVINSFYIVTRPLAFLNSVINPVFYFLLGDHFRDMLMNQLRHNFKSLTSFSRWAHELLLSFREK

[2] = molecular target: T1, succinate receptor 1 (SUCNR1); assay: antagonism at […] of agonist-induced IP1, Ca2+, cAMP inhibition, DMR and miniG BRET
[3] = molecular target: T1, succinate receptor 1 (SUCNR1); assay: dynamic mass redistribution, concentration-response

Row | Compound | dynamic mass redistribution, concentration-response [3] | further results
1 | O=C(O)[C@H]1O[C@H]1C(=O)O [CES, cis-epoxysuccinate] | – | EC50 [1]: ~111 nM
2 | CN1CCN(Cc2ccc(-c3cccc(C(=O)Nc4ccccc4CC(=O)O)c3)cc2)CC1 [NF56-EJ40, 2-(2-(4′-((4-methylpiperazin-1-yl)methyl)-[1,1′-biphenyl]-3-carboxamido)phenyl)acetic acid] | – | antagonism at 100 nM of agonist-induced IP1, Ca2+, cAMP inhibition, DMR and mini [2]: NF56-EJ40 also completely inhibited the agonist-induced SUCNR1-mediated IP1 formation and caused a significant shift of the cAMP inhibition curve
3 | O=C(O)CCC(=O)O [SUC, succinate] | – | EC50 [1]: ~644 nM
4 | C=C(CC(=O)O)C(=O)O [itaconate] | Metabolite SUCNR1 agonists (malate, oxaloacetate, methylmalonate, itaconate, malonate) showed concentration-dependent responses upon SUCNR1 stimulation | –
5 | O=C(O)CC(O)C(=O)O (centres unmarked) [malate] | Metabolite SUCNR1 agonists (malate, oxaloacetate, methylmalonate, itaconate, malonate) showed concentration-dependent responses upon SUCNR1 stimulation | –
6 | O=C(O)CC(=O)O [malonate] | Metabolite SUCNR1 agonists (malate, oxaloacetate, methylmalonate, itaconate, malonate) showed concentration-dependent responses upon SUCNR1 stimulation | –
7 | CC(C(=O)O)C(=O)O [methylmalonate] | Metabolite SUCNR1 agonists (malate, oxaloacetate, methylmalonate, itaconate, malonate) showed concentration-dependent responses upon SUCNR1 stimulation | –
8 | O=C(O)CC(=O)C(=O)O [oxaloacetate] | Metabolite SUCNR1 agonists (malate, oxaloacetate, methylmalonate, itaconate, malonate) showed concentration-dependent responses upon SUCNR1 stimulation | –
